Laboratory results as given in paper PMC9322761, “Design, Synthesis and Biological Characterization of Histone Deacetylase 8 (HDAC8) Proteolysis Targeting Chimeras (PROTACs) with Anti-Neuroblastoma Activity” (International Journal of Molecular Sciences, 2022).
Like-named read-outs stand apart in the source and are kept apart here.

How the values were obtained:
HDAC8 [1] = molecular target: T1, HDAC8 (Homo sapiens, UniProt Q9BY41); assay: In vitro HDAC8 activity assay (Fluor de Lys-HDAC8); assay type: biochemical; parameters: made in house; details: for SI (HDAC6/HDAC8): selectivity index, HDAC6 over HDAC8
T1 sequence (Q9BY41 1-377): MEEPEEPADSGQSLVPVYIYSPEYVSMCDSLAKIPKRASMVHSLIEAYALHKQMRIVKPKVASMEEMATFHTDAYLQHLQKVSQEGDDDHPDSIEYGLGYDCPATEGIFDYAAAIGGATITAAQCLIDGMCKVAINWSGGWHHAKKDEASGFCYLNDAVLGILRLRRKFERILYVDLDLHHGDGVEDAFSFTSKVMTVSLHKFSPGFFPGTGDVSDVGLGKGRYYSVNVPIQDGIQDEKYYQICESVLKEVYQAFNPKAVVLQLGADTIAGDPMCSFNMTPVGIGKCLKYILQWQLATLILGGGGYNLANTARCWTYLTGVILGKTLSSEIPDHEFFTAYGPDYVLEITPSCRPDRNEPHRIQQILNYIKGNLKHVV
Method: Recombinant hHDAC8 was produced by Romier et al. in Strasbourg. The HDAC8 activity assays were performed according to the commercial HDAC8 Fluorometric Drug Discovery Kit (Fluor de Lys(R)-HDAC8, BML-KI178) corresponding to the instructions of the manufacturer. As substrate a tetrapeptide connected to aminomethylcoumarin (AMC) H2N-Arg- His-Lys(Ac)-Lys(Ac)-AMC was synthesized as previously described. The enzyme was incubated for 90 min at 37 °C, with a substrate concentration of 50 µM and increasing concentrations of inhibitors. The stop-solution-containing inhibitor was added to stop the hHDAC8 activity, and Trypsin was added to release the AMC. The solution was incubated for 20 min at 37 °C to develop the assay.
(§1) Inhibition was measured at increasing concentration and IC50 was calculated by nonlinear regression with Origin 9.0G software.

HDAC8 [2] = molecular target: T1, HDAC8; parameters: made in house; method as in PMID 29190092, PMID 26937828; details: Table 2, previously published benzhydroxamate inhibitors; read-out: HDAC8 IC50; cited from earlier work
acetylated SMC3 = assay: Acetylation of HDAC8 substrate SMC3 in SK-N-BE(2)-C cells (Western blot); assay type: cell-based, human; details: 10 µM
Method: To test the degradation of HDAC8 with the developed PROTACs, we selected the most promising compounds obtained from the cellular neuroblastoma testing; namely CRBN_1b, CRBN_1d, CRBN_1e, HyT_1m, and HyT_1p. Whole cell lysates from treated SK-N-BE(2)-C neuroblastoma cells were taken and the protein levels for HDAC8 and the acetylation of its substrate SMC3 were determined (Figure 6). As a control for HDAC6, we also assessed acetylation levels of α-tubulin. […]. A clear dose-dependent degradation of HDAC8 by PROTAC CRBN_1e was observed (Figure 6C). After 48 h, the HDAC8 protein level was back to baseline, presumably due to de novo protein synthesis. […]. Western blot analysis was performed as described previously (Kolbinger et al.). […]
Figure 6 (A) SK-N-BE(2)-C neuroblastoma cells were treated for indicated time points with 10 µM of PROTACs. Degradation of HDAC8 and acetylation of HDAC8 target was analyzed via Western blot. […] Acetylation of HDAC8 target SMC3 and HDAC6 target tubulin, as well as total HDAC8 levels, were assessed by Western blot. Quantified ac-SMC3 or ac-tubulin expression, respectively, was normalized to the respective tubulin loading control and to the solvent control (DMSO). This quantification is reflected by the numbers below each blot. […] Total HDAC6, total HDAC1, total HDAC8, and acetyl-histone H4 expression levels, were assessed by Western blot. […]

HDAC8 [3] = molecular target: T1, HDAC8; assay: HDAC8 degradation in SK-N-BE(2)-C neuroblastoma cells (Western blot); assay type: cell-based; parameters: endogenous in cells; host or cells: SK-N-BE(2)-C; details: SK-N-BE(2)-C cells, up to 10 µM, Western blot
Method: Whole cell lysates from treated SK-N-BE(2)-C neuroblastoma cells were taken and the protein levels for HDAC8 and the acetylation of its substrate SMC3 were determined (Figure 6). As a control for HDAC6, we also assessed acetylation levels of α-tubulin. […] Western blot analysis was performed as described previously (Kolbinger et al.).
Figure 6 (A) SK-N-BE(2)-C neuroblastoma cells were treated for indicated time points with 10 µM of PROTACs. Degradation of HDAC8 and acetylation of HDAC8 target was analyzed via Western blot. (B) SK-N-BE(2)-C neuroblastoma cells were treated for 6 h with indicated concentrations of HyT_1p, CRBN_1b and HyT_1m. Acetylation of HDAC8 target SMC3 and HDAC6 target tubulin, as well as total HDAC8 levels, were assessed by Western blot. Quantified ac-SMC3 or ac-tubulin expression, respectively, was normalized to the respective tubulin loading control and to the solvent control (DMSO). This quantification is reflected by the numbers below each blot. […] Total HDAC6, total HDAC1, total HDAC8, and acetyl-histone H4 expression levels, were assessed by Western blot. Total GAPDH protein levels served as a loading control (LC). * unspecific bands obtained through reprobing of the membrane.

IMR-32 cells = assay: Cell viability / proliferation (trypan blue, viable cell count) in neuroblastoma cells; assay type: cell-based, human; details: 5 and 10 µM
Method: Moreover, we treated neuroblastoma IMR-32 cells with the remaining PROTACs and counted the resulting viable cells. We quantified the percentage of dead cells as shown in (Figure 5B,C). In addition, cell proliferation was assessed via counting of viable cells (Figure 5D,E). […] As reference, the HDAC8 inhibitor PCI-34501 was used.
Adherent cells were detached using trypsin–EDTA (ThermoFisher Scientific, Bremen, Germany) and pooled with corresponding supernatant, centrifuged, and resuspended in 1 mL of cell culture medium. Cell viability (viable cell number, % viability, % dead cells) was measured by automated trypan blue staining using the Vi-Cell XR Cell Viability Analyzer (Beckman Coulter, Krefeld, Germany).
Figure 5 (A) Neuroblastoma SK-N-BE(2)-C cells; Colony Assay, 10 days (compound treatment within first 96 h). Stained with crystal violet and quantified with ImageJ. (B,C) Trypan Blue assay for detection of dead cells. Neuroblastoma IMR-32 cells were either treated with 5 µM (B) or 10 µM (C). (D,E) Cell proliferation assessed via counting of viable cells. IMR-32 cells were either treated with 5 µM (D) or 10 µM (E) PROTACs. HDAC8i PCI-34501 served as a positive control, untreated (MEM) and solvent (DMSO) treated cells served as negative controls.

HDAC1 = HDAC1 (Homo sapiens, UniProt Q13547); assay: In vitro HDAC inhibitory activity assay, recombinant HDAC1 (fluorogenic substrate ZMAL); assay type: biochemical; parameters: purchased BPS Biosciences
Method: (§2) The in vitro testing on recombinant HDACs was performed as previously described. Recombinant human HDAC1 and −6 were purchased from BPS Biosciences. The enzyme inhibition was determined by using a reported homogenous fluorescence assay. […] Fluorescence intensity was measured at an excitation wavelength of 390 nm and an emission wavelength of 460 nm in a microtiter plate reader (BMG Polarstar).
as §1

HDAC6 = molecular target: T2, HDAC6 (Homo sapiens, UniProt Q9UBN7); assay: In vitro HDAC inhibitory activity assay, recombinant HDAC6 (fluorogenic substrate ZMAL); assay type: biochemical; parameters: purchased BPS Biosciences; details: Table 1, PROTACs; read-out: HDAC6 IC50
T2 sequence (Q9UBN7 1-1215): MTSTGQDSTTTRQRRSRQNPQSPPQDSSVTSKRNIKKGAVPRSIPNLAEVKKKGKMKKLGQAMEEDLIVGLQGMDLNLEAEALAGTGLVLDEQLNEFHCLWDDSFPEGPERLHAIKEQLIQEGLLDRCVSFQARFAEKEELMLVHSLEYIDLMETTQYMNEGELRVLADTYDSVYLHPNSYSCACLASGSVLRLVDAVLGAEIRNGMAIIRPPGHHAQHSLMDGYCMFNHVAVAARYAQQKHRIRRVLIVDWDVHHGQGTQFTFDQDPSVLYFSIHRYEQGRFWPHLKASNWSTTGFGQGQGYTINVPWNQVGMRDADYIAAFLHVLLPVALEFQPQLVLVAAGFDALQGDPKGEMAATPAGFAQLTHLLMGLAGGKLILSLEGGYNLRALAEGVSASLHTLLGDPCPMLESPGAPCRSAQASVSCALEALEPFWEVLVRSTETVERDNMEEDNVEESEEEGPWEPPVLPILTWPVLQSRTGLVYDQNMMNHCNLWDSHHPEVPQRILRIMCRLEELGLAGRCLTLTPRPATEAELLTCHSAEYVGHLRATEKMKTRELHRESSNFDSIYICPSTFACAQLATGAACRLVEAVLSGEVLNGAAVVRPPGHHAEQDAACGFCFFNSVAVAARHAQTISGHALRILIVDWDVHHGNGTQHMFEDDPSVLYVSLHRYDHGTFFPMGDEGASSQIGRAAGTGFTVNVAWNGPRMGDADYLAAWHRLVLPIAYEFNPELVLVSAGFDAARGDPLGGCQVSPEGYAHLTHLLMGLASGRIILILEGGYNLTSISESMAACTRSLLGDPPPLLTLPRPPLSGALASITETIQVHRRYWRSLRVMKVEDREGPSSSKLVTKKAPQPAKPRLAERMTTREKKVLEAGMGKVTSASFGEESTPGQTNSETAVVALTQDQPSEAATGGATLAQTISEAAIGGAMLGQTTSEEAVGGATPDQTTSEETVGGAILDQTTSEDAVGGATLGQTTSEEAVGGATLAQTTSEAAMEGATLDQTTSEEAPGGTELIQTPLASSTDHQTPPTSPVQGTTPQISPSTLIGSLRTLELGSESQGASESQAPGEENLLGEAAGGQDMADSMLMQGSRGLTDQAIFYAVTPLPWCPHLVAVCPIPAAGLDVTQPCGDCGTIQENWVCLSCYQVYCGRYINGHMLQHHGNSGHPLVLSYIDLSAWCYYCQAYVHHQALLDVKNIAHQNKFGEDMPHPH
Method: as §2, §1

HDAC8 [4] = system: HDAC8; parameters: method as in PMID 35311871; details: Jurkat cells; cited from earlier work

Chain of HDAC1 (Q13547 whole entry): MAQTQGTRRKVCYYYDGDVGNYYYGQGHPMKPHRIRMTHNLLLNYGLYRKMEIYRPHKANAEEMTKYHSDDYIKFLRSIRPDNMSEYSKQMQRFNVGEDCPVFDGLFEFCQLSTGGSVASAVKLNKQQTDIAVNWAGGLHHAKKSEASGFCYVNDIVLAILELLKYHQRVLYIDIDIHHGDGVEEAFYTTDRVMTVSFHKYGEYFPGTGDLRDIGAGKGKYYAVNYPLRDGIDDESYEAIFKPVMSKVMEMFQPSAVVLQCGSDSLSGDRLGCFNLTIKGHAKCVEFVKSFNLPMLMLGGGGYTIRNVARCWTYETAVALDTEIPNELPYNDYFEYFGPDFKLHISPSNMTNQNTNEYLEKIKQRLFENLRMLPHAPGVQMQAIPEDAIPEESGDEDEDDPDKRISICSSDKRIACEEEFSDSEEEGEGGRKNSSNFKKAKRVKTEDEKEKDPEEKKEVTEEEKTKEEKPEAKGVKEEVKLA

| SI (HDAC6/HDAC8) (HDAC8 [1]) | HDAC8 degradation (HDAC8 [3]) | IC50 (HDAC8 [1]; Table 1, PROTACs) [µM] | IC50 (HDAC6) [µM] | Compound | IC50 (HDAC8 [2]) [µM] | Effect in cell proliferation assay (viable cell count) (IMR-32 cells) | further results |
| --- | --- | --- | --- | --- | --- | --- | --- |
| 28 |  |  |  | COc1ccc(C(=O)NO)cc1NC(=O)c1ccccc1 [2b] | 0.09 ± 0.02 |  |  |
|  | no HDAC8 degradation |  |  | Cc1ccc(C(=O)NO)cc1NCc1ccc(OCc2cn(Cc3ccccc3)nn2)cc1 [33b] |  |  | IC50 (HDAC8 [1]; negative control without pomalidomide warhead): 0.698 ± 0.041 µM; Hyperacetylation of HDAC8 substrate SMC3 (acetylated SMC3): hyperacetylation of SMC3 |

Second part, the compound before the results:

| Compound | SI (HDAC6/HDAC8) (HDAC8 [1]) | HDAC8 degradation (HDAC8 [3]) | IC50 (HDAC8 [1]; Table 1, PROTACs) [µM] | IC50 (HDAC6) [µM] | IC50 (HDAC8 [2]) [µM] | Effect in cell proliferation assay (viable cell count) (IMR-32 cells) | further results |
| --- | --- | --- | --- | --- | --- | --- | --- |
| O=C(NO)c1cccc(NCc2ccccc2)c1 [2d] |  |  |  |  | 0.14 ± 0.01 |  |  |
| COc1ccc(C(=O)NO)cc1NC(=O)c1ccc(NC(=O)CCCCCNC(=O)CC23CC4CC(CC(C4)C2)C3)cc1 [HyT_1m] |  | failed to degrade HDAC8 | 0.57 ± 0.11 | 0.25 ± 0.08 |  | less significant | inhibition at 1 µM (HDAC1; 1 µM, read-out: HDAC1 % inhib. at given conc.): 47.7%; inhibition at 10 µM (HDAC1; 10 µM, read-out: HDAC1 % inhib. at given conc.): 81.9% |
| COc1ccc(C(=O)NO)cc1NC(=O)c1ccc(NC(=O)CCCCCCC(=O)N[C@H](C(=O)N2C[C@H](O)C[C@H]2C(=O)NCc2ccc(-c3scnc3C)cc2)C(C)(C)C)cc1 [VHL_1k] | 3 |  | 0.11 ± 0.01 | 0.31 ± 0.01 |  | less significant | IC50 (HDAC1; Table 1, PROTACs, read-out: HDAC1 IC50): > 20 µM |
| O=C1CCC(N2C(=O)c3cccc(NCCCCCCCCCCCNC(=O)c4cccc(SCc5cn(-c6cccc(C(=O)NO)c6)nn5)c4)c3C2=O)C(=O)N1 (stereo not drawn) [XIII] |  |  |  |  |  |  | HDAC8 degradation (HDAC8 [4]): efficient degradation of HDAC8 enzyme |
